Assay results reported in patent publication US10894037B2, “Inhibitors of bacterial two component signal transduction system and uses thereof” (priority 2017, dated 2021).

Columns and labels:
Assay type in all cases: binding
[1] = biological target: T1, PmrAC (C-terminal domain of PmrA) (Klebsiella pneumoniae, UniProt W9BNR5); test: NMR (2D 1H-15N TROSY-HSQC) compound titration for dissociation constant
T1 sequence (W9BNR5 121-223): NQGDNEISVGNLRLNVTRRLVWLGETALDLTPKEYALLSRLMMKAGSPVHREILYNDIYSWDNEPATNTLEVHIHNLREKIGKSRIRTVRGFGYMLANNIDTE
Experimental: NMR Spectroscopy and Compound Titrations
The preparations of NMR samples were as described previously (Mscielag and Goldschmidt, Expert opinion on investigational drugs 2000, 9, 2351-2369.). Briefly, the activated and inactivated PmrA (0.3 ml, 0.25 mM) were prepared in pH8.0 buffer (20 mM Tris and 100 mM NaCl) with or without BeF3^− activation. PmrAC (0.3 ml, 0.25 mM) was prepared in pH8.0 buffer (20 mM Tris and 100 mM NaCl). All the protein solutions were further loaded in Shigemi NMR tubes (Shigemi Inc.). NMR experiments for activated/inactivated PmrA and PmrAC were conducted at 310 and 298K on Brucker AVANCE 600 or 800 NMR spectrometers (Bruker, Karlsruhe, Germany) equipped with a triple-resonance cryoprobe including a shielded z-gradient. The hetero-nuclear NMR experiments for backbone assignments were performed as described previously in a review article (Garcia-Calderon et al., Journal of Bacteriology 2007, 189, 6635-6644). All the acquired NMR spectra were processed by using NMRPipe (Chen and Groisman, Annual review of microbiology 2013, 67, 83-112) and analyzed with NMRViewJ8.0a.22 (Wosten et al., Molecular microbiology 2006, 60, 39-50). […] The chemical shift changes were calculated through the equation Δδ=[(ΔδNH)^2+(0.17×ΔδN)^2]^0.5, in which ΔδNH and ΔδN are the chemical shift differences for ^1HN and ^15N, respectively. […]

[2] = biological target: T1, PmrAC (C-terminal domain of PmrA); test: Bio-layer interferometry (BLI)
Experimental: Bio-Layer Interferometry (BLI)
The BLI kinetics were obtained by using the ForteBio Octet RED96 instrument (ForteBio, Pall Life Sciences). Recombinant PmrAC carrying C-terminal 6× His tag was immobilized on the HIS1K biosensor in the reaction buffer containing 20 mM sodium phosphate, 100 mM NaCl, pH 6.0 at 25° C. for 180 s prior to kinetic experiment. For the association, the preloading biosensor was exposed to different concentration of E1 (0-37.5 μM) for the period of 300 s. Following the dissociation step, the sensor was subjected to the reaction buffer for 300 s. Kinetic constants, including Kon (association constant, M^−1s^−1) and Koff (dissociation constant, s^−1), were obtained by fitting the reaction model 1:1 kinetics to the reference-subtracted data. The equilibrium dissociation (KD) was calculated as the ratio of Koff to Kon. All calculation was determined using Data Analysis 7 software (ForteBio, Pall Life Sciences).
(§1) The binding affinity of E1 toward PmrAC (C-terminal domain of PmrA) was further assessed by Isothermal titration calorimetry (ITC) and Bio-layer interferometer (BLI) at the condition described previously (Lou et al., Nature communication 2015, 6, 8838.) (sodium phosphate buffer pH6.0). According to the ITC results, the interaction of E1 with PmrAC appeared to be an exothermic reaction, with a change in enthalpy (ΔH) of −21.4 kcal/mol, change in entropy (AS) of −45.6 […], and N value of 1.09 (FIG. 2, panel G).

PmrA-DNA complex [3] = biological target: PmrA-DNA complex (Klebsiella pneumoniae, UniProt W9BNR5); test: Fluorescence polarization (FP) assay of inhibition of PmrA-DNA complex formation
PmrA-DNA complex (Klebsiella pneumoniae, UniProt W9BNR5), sequence (W9BNR5 whole entry I220D/W181G, one chain of several): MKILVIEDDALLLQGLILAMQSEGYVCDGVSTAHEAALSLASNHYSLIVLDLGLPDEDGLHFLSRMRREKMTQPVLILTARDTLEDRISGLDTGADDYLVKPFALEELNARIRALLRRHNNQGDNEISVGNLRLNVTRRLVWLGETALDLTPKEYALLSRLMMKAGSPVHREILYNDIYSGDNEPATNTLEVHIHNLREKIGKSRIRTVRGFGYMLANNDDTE
Experimental: (§2) Fluorescence Polarization (FP) Measurements
(§3) Compounds, E1-E5, were purchased from InterBioScreen (Moscow, Russia) (E1: STOCK1S-95047; E2: STOCK1N-13224; E3: STOCK1N-16691; E4: STOCK 1 S-43938; E5: STOCK1S-55283), and the purity are over 90% examined by NMR. The oligonucleotides (5′-[…]-3′, SEQ ID NO: 2) labeled with 6-carboxyfluorescein (6-FAM) at the 5′-position, was dissolved in 10 mM sodium phosphate and 15 mM NaCl pH 7.0 for fluorescence polarization experiments. About 10 μl activated PmrA (prepared in 10 mM sodium phosphate and 15 mM NaCl at pH7.0) was first added into the well of ELISA plate. Then, 1 μl of serial diluted inhibitors, E1-E5, (prepared in the sample buffer of activated PmrA) were mixed with the PmrA (final concentration Of 30 μM) to reach the interested concentrations and incubated at 25° C. for 10 mins. Subsequently, 9 μl of 6-FAM-labeled DNA (final concentration of 10 nM) was added into the reaction, incubating at 25° C. for another 10 mins. Reactions were measured 3 times by use of a SpectraMax Paradigm plate reader (Molecular Devices, CA, USA) with excitation wavelength 485 nm and emission wavelength 535 nm. The inhibition % was derived according to the following equation:
(§4) [formula] in which (D), (P+D), and (P+I+D) are the polarization intensity of DNA alone, PmrA with DNA, and PmrA mixed with inhibitor then incubated with DNA, respectively.
(§5) Fluorescence polarization (FP) was first employed to access the inhibitory abilities of E1-E5 against the formation of PmrA-DNA complex in accordance with procedures described in the section of “Materials and Methods.” Results are depicted in FIG. 1, panels E and F, and Table 1.

PmrA-DNA complex [4] = biological target: PmrA-DNA complex (Klebsiella pneumoniae, UniProt W9BNR5, I220D/W181G); test: as above; conditions: read-out: inhibition of PmrA binding to DNA (PmrA-DNA complex formation)
PmrA-DNA complex (Klebsiella pneumoniae, UniProt W9BNR5, I220D/W181G), sequence (W9BNR5 whole entry I220D/W181G, one chain of several): as above
Experimental: as §2, §3, §4, §5

[5] = biological target: T1, PmrAC (C-terminal domain of PmrA); test: Isothermal titration calorimetry (ITC)
Experimental: Isothermal Titration Calorimetry (ITC)
The binding affinities of PmrAC with compound, E1, was estimated by ITC using a MicroCal iTC200 microcalorimeter. The sample of PmrAC was prepared in reaction buffer (20 mM sodium phosphate, 100 mM NaCl, pH6.0). Compounds were also prepared in reaction buffer (E1=0.4 mM) and titrated into PmrAC (45 μM) at 25° C. The background heat generated from compound to buffer titration was subtracted, and the corrected heat form the binding reaction of PmrAC to E1 was used to derive the association constant (Ka), the enthalpy of binding (ΔH), the change in Gibbs free energy (ΔG), and the entropy changes ([…]) at 298K. All the data were analyzed by using Origin ITC Analysis (MicroCal Software, Northampton, Mass., USA).
as §1

SMILES	Kd [1]	Kd [2]	koff ([2]; read-out: Koff rate)	kon ([2]; read-out: Kon rate)	IC50 (PmrA-DNA complex [3])	inhibition at 50 µM (PmrA-DNA complex [4])	Kd [5]
O=S(=O)(O)c1ccc(-c2ncc(-c3ccc(-c4cnc(-c5ccc(S(=O)(=O)O)cc5)o4)cc3)o2)cc1 [Compound E1]	126 ± 34.6 µM	2.6 ± 0.1 µM	0.251 s⁻¹	94900 M⁻¹ s⁻¹	10.2 ± 2.6 µM	70.2 ± 3.2%	1.7 µM
O=S(=O)(O)CCOCC1CSSCC(COCCS(=O)(=O)O)SS1 (centres unmarked) [Compound E2]					42.5 ± 2.9 µM	55.9 ± 2.7%	
O=S(=O)(O)CC1CSSCC(CS(=O)(=O)O)SS1 (centres unmarked) [Compound E3]					100 ± 2.5 µM	27.4 ± 1.8%	
